Laboratory results as given in patent publication US7629002B2, “Antimicrobial polymeric compositions and method of treatment using them” (Chemeq Ltd., priority 2000, dated 2009).

Experiments:
[1] = tested on: P. aeruginosa; assay: MKC of preservatives and synergy (Example 14); type: cell-based
Method: (§1) Overnight broths of challenge cultures were prepared and the Total Viable Count (TVC) of the overnight cultures was estimated.
(§2) The samples were serially diluted 1 to 1 using sterile normal saline (5 mL). Sterile Hard Water (SHW) was used as diluent when testing samples containing EDTA.
(§3) 1 part of each overnight culture was diluted in 9 parts diluent. The resulting diluted suspensions were used as the inocula.
(§4) Inoculate each sample dilution with 100 μL of the diluted overnight culture. (One culture per tube). Mix well.
(§5) The tubes were incubated for ≦24 hours at 37° C. (A. niger was incubated at 28° C. for ≦24 hours).
(§6) From each test tube, 1 mL was subcultured into 9 mL of recovery broth and mixed well (Recovery Broths: Nutrient Broth+3% Tween 80 (NBT) for polymeric antimicrobial and EDTA; Nutrient Broth+3% Tween 80+(NBTA) for glutaraldehyde and, Letheen Broth (LB) for methyl parabens).
(§7) The samples incubated at 37° C. for a further ≦48 hours. (28° C. for ≦5 days for A niger).
(§8) Each tube was examined for growth. All tubes were then subcultured onto selective agar and incubated for ≦24 hours at 37° C. (28° C. for ≦5 days for A. niger). Growth on selective agar was taken to confirm growth of the test organism.

[2] = tested on: E. coli; assay: MKC of preservatives and synergy (Example 14); type: cell-based
Method: as §1, §2, §3, §4, §5, §6, §7, §8

[3] = tested on: S. aureus; assay: MKC of preservatives and synergy (Example 14); type: cell-based
Method: as §1, §2, §3, §4, §5, §6, §7, §8

[4] = tested on: C. albicans; assay: MKC of preservatives and synergy (Example 14); type: cell-based; conditions: polymer 0.2% w/w, mix as ratio
Method: as §1, §2, §3, §4, §5, §6, §7, §8

[5] = tested on: A. niger; assay: MKC of preservatives and synergy (Example 14); type: cell-based; conditions: polymer 0.2% w/w
Method: as §1, §2, §3, §4, §5, §6, §7, §8

[6] = in vivo
Source text: Chickens treated each of the antimicrobials were compared with a control group according to the following procedure:
In each trial 20 Cob chickens (Line 53), day old were purchased from a commercial hatchery. They were weighed, sexed and randomly assigned into adjacent pens in a room of an isolated animal house. There was an even distribution of male and female chickens. Water and feed were available ad libitum. The diet was a commercial crumble (Chick Starter, Milne Feeds: 18% crude protein) with a coccidiostat present (125 ppm Dinitolomide).
Ten chickens were administered the formulation of 0.1% w/w of normally activated antimicrobial from Example 10a in the water for 14 days through static drinkers; dose rate of 30 mg/kg/day. The other ten chickens were the Control Group.
Both groups of chickens were weighed on days 0, 4, 7, 11 and 14. At the completion of the trial all chickens were euthanised, and the treated chickens were autopsied post mortem. A thorough gross examination of the thoracic and abdominal cavities was performed.

O=C(O)CN(CCN(CC(=O)O)CC(=O)O)CC(=O)O [EDTA]
MKC ([1]; inoculum 9.4 × 10^8 cfu/mL, polymer 0.2% w/w, EDTA 0.1% w/w, mix as ratio): 1000 | MKC ([2]; inoculum 1.0 × 10^9 cfu/mL, polymer 0.2% w/w, EDTA 0.1% w/w, mix as ratio): >1000 | MKC ([3]; inoculum 1.3 × 10^9 cfu/mL, polymer 0.2% w/w, EDTA 0.1% w/w, mix as ratio): >1000 | MKC ([4]; inoculum 3.2 × 10^6 cfu/mL, EDTA 0.1% w/w): 1000 | MKC ([5]; inoculum 3.0 × 10^7 cfu/mL, EDTA 0.1% w/w, mix as ratio polymeric antimicrobial:preservative): >1000

O=CCCCC=O [Glutaraldehyde]
MKC ([1]; inoculum 1.9 × 10^9 cfu/mL, polymer 0.025% w/w, Glutaraldehyde 0.025% w/w): 31 | MKC ([2]; inoculum 1.6 × 10^9 cfu/mL, polymer 0.025% w/w, Glutaraldehyde 0.025% w/w): 3.5 | MKC ([3]; inoculum 1.5 × 10^9 cfu/mL, polymer 0.025% w/w, Glutaraldehyde 0.025% w/w): 7 | MKC ([4]; inoculum 3.0 × 10^6 cfu/mL, Glutaraldehyde 0.025% w/w): 125 | MKC ([5]; inoculum 3.3 × 10^7 cfu/mL, Glutaraldehyde 0.025% w/w start solutions, mix as ratio polymeric antimicrobial:preservative): >250

COC(=O)c1ccc(O)cc1 [Methyl Paraben]
MKC ([1]; inoculum 1.8 × 10^9 cfu/mL, polymer 0.2% w/w, Methyl Paraben 1% w/w, in 80% w/w glycerol, mix as ratio): 1250 | MKC ([2]; inoculum 9.6 × 10^8 cfu/mL, polymer 0.2% w/w, Methyl Paraben 1% w/w, in 80% w/w glycerol, mix as ratio): 2500 | MKC ([3]; inoculum 1.3 × 10^9 cfu/mL, polymer 0.2% w/w, Methyl Paraben 1% w/w, in 80% w/w glycerol, mix as ratio): 2500 | MKC ([4]; inoculum 1.1 × 10^7 cfu/mL, Methyl Paraben 1% w/w, in 80% w/w glycerol): 1250 | MKC ([5]; inoculum 2.2 × 10^7 cfu/mL, Methyl Paraben 1% w/w, in 80% w/w glycerol, mix as ratio): 10000

poly(2-propenal, 2-propenoic acid) [Example 10a]
clinical or pathological signs of toxicity at gross examination post-mortem [6]: no clinical or pathological signs of toxicity were evident
